Source: ChEMBL document CHEMBL4229471, “Antiprotozoal and cysteine proteases inhibitory activity of dipeptidyl enoates” (Bioorg Med Chem, 2018)
The source made the active and inactive calls. No cut-off for these calls is given here.

Columns and labels:
Cathepsin B [1] = molecular target: T1, Cathepsin B (Homo sapiens, UniProt P07858); assay: Inhibition of human cathepsin B at 20 uM using Cbz-Phe-Arg-AMC as substrate relative to control
Cathepsin B [2] = molecular target: T1, Cathepsin B; assay: Inhibition of human cathepsin B using Cbz-Phe-Arg-AMC as substrate
Cathepsin B [3] = molecular target: T1, Cathepsin B; assay: Inhibition of human cathepsin B assessed as second order rate constant using Cbz-Phe-Arg-AMC as substrate
Procathepsin L [4] = molecular target: T2, Procathepsin L (Homo sapiens, UniProt P07711); assay: Inhibition of human cathepsin L at 20 uM using Cbz-Phe-Arg-AMC as substrate relative to control
Target sequence in this assay (P07711 114-333 limits assumed): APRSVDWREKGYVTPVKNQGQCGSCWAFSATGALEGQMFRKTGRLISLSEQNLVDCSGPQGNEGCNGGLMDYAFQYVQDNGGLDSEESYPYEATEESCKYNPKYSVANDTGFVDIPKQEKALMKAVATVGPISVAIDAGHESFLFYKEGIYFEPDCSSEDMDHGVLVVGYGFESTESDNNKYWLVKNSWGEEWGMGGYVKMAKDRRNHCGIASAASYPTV

Procathepsin L [5] = molecular target: T2, Procathepsin L; assay: Inhibition of human cathepsin L using Cbz-Phe-Arg-AMC as substrate
Target sequence in this assay (P07711 whole entry): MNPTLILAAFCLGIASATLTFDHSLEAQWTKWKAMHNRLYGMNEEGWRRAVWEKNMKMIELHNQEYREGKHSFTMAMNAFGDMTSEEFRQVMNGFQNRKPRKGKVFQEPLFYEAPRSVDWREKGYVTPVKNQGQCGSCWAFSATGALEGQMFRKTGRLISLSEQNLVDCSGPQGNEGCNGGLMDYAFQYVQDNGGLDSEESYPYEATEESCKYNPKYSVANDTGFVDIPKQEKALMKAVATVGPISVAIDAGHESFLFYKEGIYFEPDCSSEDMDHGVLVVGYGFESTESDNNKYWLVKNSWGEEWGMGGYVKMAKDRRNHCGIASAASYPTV

[6] = molecular target: Rhodesain (Trypanosoma brucei rhodesiense) (UniProt Q95PM0); assay: Inhibition of Trypanosoma brucei rhodesiense rhodesain at 20 uM using Cbz-Phe-Arg-AMC as substrate measured for 30 mins by fluorescence method relative to control
Rhodesain = Rhodesain (Trypanosoma brucei rhodesiense, UniProt Q95PM0); assay: Inhibition of Trypanosoma brucei rhodesiense rhodesain using Cbz-Phe-Arg-AMC as substrate measured for 30 mins by fluorescence method
[7] = molecular target: Rhodesain (Trypanosoma brucei rhodesiense) (UniProt Q95PM0); assay: Inhibition of Trypanosoma brucei rhodesiense rhodesain assessed as second-order rate constant using Cbz-Phe-Arg-AMC as substrate measured for 30 mins by fluorescence method
[8] = molecular target: Cruzipain (Trypanosoma cruzi) (UniProt P25779); assay: Inhibition of Trypanosoma cruzi cruzain at 20 uM relative to control
Cruzipain = Cruzipain (Trypanosoma cruzi, UniProt P25779); assay: Inhibition of Trypanosoma cruzi cruzain
[9] = molecular target: Cruzipain (Trypanosoma cruzi) (UniProt P25779); assay: Inhibition of Trypanosoma cruzi cruzain assessed as second-order rate constant
[10] = molecular target: T3, Falcipain 2 (Plasmodium falciparum) (UniProt Q9N6S8); assay: Irreversible inhibition of Plasmodium falciparum falcipain-2 using Cbz-Phe-Arg-AMC as substrate pretreated for 30 mins followed by substrate addition and measured for 30 mins by dialysis method
T3 sequence (whole entry): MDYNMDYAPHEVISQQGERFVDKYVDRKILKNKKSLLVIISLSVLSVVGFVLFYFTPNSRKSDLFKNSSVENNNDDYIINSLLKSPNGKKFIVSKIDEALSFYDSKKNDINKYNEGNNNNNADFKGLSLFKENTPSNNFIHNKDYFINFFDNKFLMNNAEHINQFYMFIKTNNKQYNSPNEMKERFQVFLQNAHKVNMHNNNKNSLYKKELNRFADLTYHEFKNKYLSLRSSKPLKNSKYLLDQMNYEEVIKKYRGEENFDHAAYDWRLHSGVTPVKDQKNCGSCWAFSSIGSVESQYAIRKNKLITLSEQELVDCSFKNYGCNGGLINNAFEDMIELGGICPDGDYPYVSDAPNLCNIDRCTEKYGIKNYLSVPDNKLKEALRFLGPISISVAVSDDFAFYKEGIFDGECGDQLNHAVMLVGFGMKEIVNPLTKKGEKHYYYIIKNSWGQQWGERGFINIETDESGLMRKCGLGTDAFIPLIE

[11] = molecular target: Rhodesain (Trypanosoma brucei rhodesiense) (UniProt Q95PM0); assay: Irreversible inhibition of Trypanosoma brucei rhodesiense rhodesain using Cbz-Phe-Arg-AMC as substrate pretreated for 30 mins followed by substrate addition and measured for 30 mins by dialysis method
[12] = molecular target: Cruzipain (Trypanosoma cruzi) (UniProt P25779); assay: Irreversible inhibition of Trypanosoma cruzi cruzain pretreated for 30 mins followed by substrate addition and measured for 30 mins by dialysis method
Procathepsin L [13] = molecular target: T2, Procathepsin L; assay: Inhibition of human cathepsin L assessed as second order rate constant using Cbz-Phe-Arg-AMC as substrate
Target sequence in this assay (P07711 114-333 limits assumed): as the sequence (P07711 114-333 limits assumed) above

Plasmodium falciparum = assay: Antimalarial activity against erythrocytic stage of synchronized Plasmodium falciparum Dd2 after 48 hrs by Picogreen dye based fluorescence assay; type: functional, organism-based; details: Dd2, 48 h
[14] = Cytotoxicity against human HepG2 cells assessed as cell viability at 1 uM measured after 24 hrs by spectrophotometric method relative to control; type: cell-based; details: read-out: Activity
[15] = molecular target: T3, Falcipain 2 (Plasmodium falciparum); assay: Inhibition of Plasmodium falciparum falcipain-2 at 20 uM using Cbz-Phe-Arg-AMC as substrate measured for 15 mins by spectrofluorimetric method relative to control
Falcipain 2 = molecular target: T4, Falcipain 2 (Plasmodium falciparum, UniProt Q9N6S8); assay: Inhibition of Plasmodium falciparum falcipain-2 using Cbz-Phe-Arg-AMC as substrate measured for 15 mins by spectrofluorimetric method
T4 sequence (Q9N6S8 whole entry): T3 sequence (whole entry)

[16] = molecular target: T3, Falcipain 2 (Plasmodium falciparum); assay: Inhibition of Plasmodium falciparum falcipain-2 assessed as second-order rate constant using Cbz-Phe-Arg-AMC as substrate measured for 15 mins by spectrofluorimetric method
Trypanosoma cruzi = assay: Antitrypanosomal activity against Trypanosoma cruzi Tulahuen strain C2C4 amastigote forms harboring LacZ infected in rat L6 cells after 96 hrs by CPRG/Nonidet reagent based photometric method; type: functional, organism-based; details: Tulahuen strain C2C4, L6, 96 h
[17] = tested on: Trypanosoma brucei rhodesiense; assay: Antiprotozoal activity against patient derived Trypanosoma brucei rhodesiense STIB 900 bloodstream form after 70 hrs by Alamar Blue assay; type: functional, organism-based; details: STIB 900, 70 h
Leishmania donovani = assay: Antileishmanial activity against Leishmania donovani MHOM/ET/67/L82 axenic amastigotes after 70 hrs by alamar blue staining based fluorescence assay; type: functional, organism-based; details: MHOM/ET/67/L82, 70 h

Sequence of Cruzipain (P25779 whole entry): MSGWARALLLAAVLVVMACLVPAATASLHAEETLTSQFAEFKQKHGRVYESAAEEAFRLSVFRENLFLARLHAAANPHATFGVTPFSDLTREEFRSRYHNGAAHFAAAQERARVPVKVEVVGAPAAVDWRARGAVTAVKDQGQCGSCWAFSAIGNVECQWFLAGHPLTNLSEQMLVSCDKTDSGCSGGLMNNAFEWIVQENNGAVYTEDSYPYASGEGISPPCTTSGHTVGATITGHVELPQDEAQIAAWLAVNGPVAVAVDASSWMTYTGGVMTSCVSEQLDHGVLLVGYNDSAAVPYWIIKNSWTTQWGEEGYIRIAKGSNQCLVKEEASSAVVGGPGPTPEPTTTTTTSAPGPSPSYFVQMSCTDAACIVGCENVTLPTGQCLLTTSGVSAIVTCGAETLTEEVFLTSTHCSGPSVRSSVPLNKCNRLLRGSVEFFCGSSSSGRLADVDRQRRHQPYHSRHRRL
Sequence of Rhodesain (Trypanosoma brucei rhodesiense) (Q95PM0 1-450): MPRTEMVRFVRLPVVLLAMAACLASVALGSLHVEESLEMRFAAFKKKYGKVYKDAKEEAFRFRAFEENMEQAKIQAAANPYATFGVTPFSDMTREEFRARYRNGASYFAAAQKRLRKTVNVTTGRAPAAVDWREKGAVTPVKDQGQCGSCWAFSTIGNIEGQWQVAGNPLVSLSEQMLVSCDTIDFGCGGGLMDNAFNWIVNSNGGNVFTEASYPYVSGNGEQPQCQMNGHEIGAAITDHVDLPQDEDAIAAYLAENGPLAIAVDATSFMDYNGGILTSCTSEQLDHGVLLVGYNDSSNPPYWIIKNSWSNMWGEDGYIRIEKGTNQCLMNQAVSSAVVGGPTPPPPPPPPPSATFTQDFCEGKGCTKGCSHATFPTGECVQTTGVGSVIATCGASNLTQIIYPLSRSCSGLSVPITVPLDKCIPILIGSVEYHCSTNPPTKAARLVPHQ
Sequence of Rhodesain (Q95PM0 whole entry): as the sequence (Q95PM0 1-450) above
Sequence of Cruzipain (Trypanosoma cruzi) (P25779 123-467 limits assumed): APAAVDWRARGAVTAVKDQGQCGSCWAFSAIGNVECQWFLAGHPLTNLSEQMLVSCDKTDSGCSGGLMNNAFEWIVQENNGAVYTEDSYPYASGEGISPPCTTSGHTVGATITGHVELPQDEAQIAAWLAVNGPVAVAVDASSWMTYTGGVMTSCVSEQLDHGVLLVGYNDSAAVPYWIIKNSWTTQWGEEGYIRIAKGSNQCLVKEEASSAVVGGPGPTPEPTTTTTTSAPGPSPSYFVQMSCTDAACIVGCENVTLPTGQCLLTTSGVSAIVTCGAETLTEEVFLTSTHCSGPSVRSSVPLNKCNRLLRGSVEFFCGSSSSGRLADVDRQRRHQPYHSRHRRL

Compound | inhibition (Cathepsin B [1]) | IC50 (Cathepsin B [2]) | K (Cathepsin B [3]) | inhibition (Procathepsin L [4]) | IC50 (Procathepsin L [5]) | inhibition [6] | IC50 (Rhodesain) | K [7] | inhibition [8] | IC50 (Cruzipain) | K [9] | K (Procathepsin L [13]) | inhibition [15] | further results
CCOC(=O)/C=C/C(=O)[C@@H](CCc1ccccc1)NC(=O)[C@H](Cc1ccccc1)NC(=O)N1CCOCC1 | 99% | 80 nM | 108000 M⁻¹ s⁻¹ | 100% | > 2000 nM | 99% | 150 nM | 62400 M⁻¹ s⁻¹ | 99% | 330 nM | 22000 M⁻¹ s⁻¹ | – | – | inhibition [10]: Active; inhibition [11]: Active; inhibition [12]: Active
CCOC(=O)/C=C/C(=O)[C@H](CCc1ccccc1)NC(=O)[C@H](CC(C)C)NC(=O)N1CCOCC1 | 100% | 140 nM | 31400 M⁻¹ s⁻¹ | 100% | 210 nM | 100% | 140 nM | 120000 M⁻¹ s⁻¹ | – | 340 nM | 5600 M⁻¹ s⁻¹ | 19600 M⁻¹ s⁻¹ | – | IC50 (Plasmodium falciparum): 17700 nM; viability at 24 h, 1 µM [14]: 100%
CCOC(=O)/C=C/[C@H](O)[C@H](CCc1ccccc1)C(=O)N[C@@H](Cc1ccccc1)C(=O)OC | 0% | – | – | 0% | – | 4% | – | – | – | – | – | – | 9% | –
CCOC(=O)/C=C/[C@@H](O)[C@H](CCc1ccccc1)NC(=O)[C@H](Cc1ccccc1)NC(=O)OCc1ccccc1 | 36% | – | 772 to 800 M⁻¹ s⁻¹ | 57% | – | 63% | – | 3200 to 3210 M⁻¹ s⁻¹ | 18% | – | – | 1100 M⁻¹ s⁻¹ | 41% | IC50 (Falcipain 2): 34400 nM; K [16]: 557 M⁻¹ s⁻¹
O=C(Cn1ccnc1[N+](=O)[O-])NCc1ccccc1 [BENZNIDAZOLE] | – | – | – | – | – | – | – | – | – | – | – | – | – | IC50 (Trypanosoma cruzi): 0.5 µg/mL
O=C(/C=C/[C@@H](O)[C@H](CCc1ccccc1)NC(=O)[C@H](Cc1ccccc1)NC(=O)OCc1ccccc1)NCc1ccccc1 | 9% | – | – | 17% | – | 1% | – | – | 41% | – | – | – | – | –
CCOC(=O)/C=C/[C@H](O)[C@H](CCc1ccccc1)C(=O)N[C@@H](CC(C)C)C(=O)OCc1ccccc1 | 17% | – | – | 0% | – | 2% | – | – | – | – | – | – | 5% | –
CCOC(=O)/C=C/C(=O)[C@H](C)NC(=O)[C@H](Cc1ccccc1)NC(=O)OCc1ccccc1 | 100% | – | 47000 M⁻¹ s⁻¹ | 100% | 80 nM | 100% | – | 6500 M⁻¹ s⁻¹ | 100% | 300 nM | 140000 M⁻¹ s⁻¹ | 197000 M⁻¹ s⁻¹ | 99% | IC50 (Falcipain 2): 190 nM; K [16]: 28300 M⁻¹ s⁻¹
CCOC(=O)/C=C/[C@H](O)[C@H](CCc1ccccc1)NC(=O)[C@H](Cc1ccccc1)NC(=O)OCc1ccccc1 | 35% | 52600 nM | 14 M⁻¹ s⁻¹ | 58% | 47000 nM | 32% | – | – | 37% | – | – | 77 M⁻¹ s⁻¹ | 22% | –
CCOC(=O)/C=C/C(=O)[C@H](CC(C)C)NC(=O)[C@H](Cc1ccccc1)NC(=O)OCc1ccccc1 | 100% | 50 nM | 138000 M⁻¹ s⁻¹ | 100% | 10 nM | 100% | 20 nM | 1.61e+06 M⁻¹ s⁻¹ | 100% | 20 nM | 517000 M⁻¹ s⁻¹ | 759000 M⁻¹ s⁻¹ | – | IC50 (Plasmodium falciparum): 14900 nM; viability at 24 h, 1 µM [14]: 100%
CCOC(=O)/C=C/C(=O)[C@@H](CC(C)C)NC(=O)[C@H](Cc1ccccc1)NC(=O)OCc1ccccc1 | 100% | 60 nM | 117000 M⁻¹ s⁻¹ | 100% | 10 nM | 100% | 30 nM | 1.53e+06 M⁻¹ s⁻¹ | 100% | 20 nM | 312000 M⁻¹ s⁻¹ | 704000 M⁻¹ s⁻¹ | – | –
CCOC(=O)/C=C/C(=O)[C@H](C)NC(=O)[C@H](CC(C)C)NC(=O)OCc1ccccc1 | 100% | – | 85500 M⁻¹ s⁻¹ | 99% | 500 nM | 99% | – | 14200 M⁻¹ s⁻¹ | 99% | – | 14400 M⁻¹ s⁻¹ | 9800 M⁻¹ s⁻¹ | 98% | IC50 (Falcipain 2): 1200 nM; K [16]: 12000 M⁻¹ s⁻¹
CCOC(=O)/C=C/[C@@H](O)[C@H](C)NC(=O)[C@H](Cc1ccccc1)NC(=O)OCc1ccccc1 | 26% | – | – | 80% | – | 63% | 15100 nM | 11000 M⁻¹ s⁻¹ | 30% | – | – | 828 M⁻¹ s⁻¹ | 41% | IC50 (Falcipain 2): 26800 nM; K [16]: 2700 M⁻¹ s⁻¹
CCOC(=O)/C=C/[C@@H](O)[C@H](CCc1ccccc1)NC(=O)[C@H](Cc1ccccc1)NC(=O)N1CCOCC1 | 100% | – | 4190 to 4200 M⁻¹ s⁻¹ | 98% | – | 99% | – | 36700 M⁻¹ s⁻¹ | 95% | – | 3600 M⁻¹ s⁻¹ | 1900 M⁻¹ s⁻¹ | – | –
CCOC(=O)/C=C/[C@H](O)[C@H](CCc1ccccc1)C(=O)N[C@@H](CC(C)C)C(=O)OC | 0% | – | – | 0% | – | 1% | – | – | – | – | – | – | 3% | –
CCOC(=O)/C=C/C(=O)[C@H](CCc1ccccc1)NC(=O)[C@H](CC(C)C)NC(=O)OCc1ccccc1 | 100% | – | 42400 M⁻¹ s⁻¹ | 100% | 260 nM | 98% | – | 116000 M⁻¹ s⁻¹ | 100% | 80 nM | 60800 M⁻¹ s⁻¹ | 29900 M⁻¹ s⁻¹ | 98% | IC50 (Falcipain 2): 580 nM; K [16]: 6000 M⁻¹ s⁻¹; IC50 [17]: 2320 nM; IC50 (Plasmodium falciparum): 1610 nM; IC50 (Trypanosoma cruzi): 7140 nM; IC50 (Leishmania donovani): 90 nM; viability at 24 h, 1 µM [14]: 100%
CCOC(=O)/C=C/[C@@H](O)[C@H](CCc1ccccc1)NC(=O)[C@H](CC(C)C)NC(=O)OCc1ccccc1 | 10% | – | – | 14% | – | 0% | – | – | 9% | – | – | – | 11% | –
CCOC(=O)/C=C/[C@H](O)[C@H](CCc1ccccc1)C(=O)N[C@@H](Cc1ccccc1)C(=O)OCc1ccccc1 | 25% | – | – | 0% | – | 6% | – | – | – | – | – | – | 5% | –
CCOC(=O)/C=C/C(=O)[C@H](CCc1ccccc1)NC(=O)[C@H](Cc1ccccc1)NC(=O)N1CCOCC1 | 100% | 70 nM | 97000 M⁻¹ s⁻¹ | 100% | 180 nM | 100% | 150 nM | 142000 M⁻¹ s⁻¹ | 100% | 300 nM | 23400 M⁻¹ s⁻¹ | 28500 M⁻¹ s⁻¹ | – | IC50 (Plasmodium falciparum): 6810 nM; viability at 24 h, 1 µM [14]: 100%; inhibition [10]: Active; inhibition [11]: Active; inhibition [12]: Active
CCOC(=O)/C=C/C(=O)[C@H](CC(C)C)NC(=O)[C@H](CC(C)C)NC(=O)N1CCOCC1 | 100% | 90 nM | 49500 M⁻¹ s⁻¹ | 100% | 90 nM | 100% | 110 nM | 324000 M⁻¹ s⁻¹ | 100% | 200 nM | 10600 M⁻¹ s⁻¹ | 52200 M⁻¹ s⁻¹ | – | –
O=C(O)/C=C/[C@@H](O)[C@H](CCc1ccccc1)NC(=O)[C@H](Cc1ccccc1)NC(=O)OCc1ccccc1 | 15% | – | – | 47% | – | 24% | – | – | 12% | – | – | 882 M⁻¹ s⁻¹ | 24% | IC50 (Falcipain 2): 75000 nM; K [16]: 29 M⁻¹ s⁻¹
